Paper PMC5460274 (Scientific Reports, 2017)
One block for each compound: values may come before it.

Tests used:
Type in all cases: cell-based
[1] = target: T1, dimethylarginine dimethylaminohydrolase 1 (DDAH1) (Homo sapiens, UniProt O94760); assay: UPLC-MS of L-citrulline formation from ADMA; […] inhibition at […]
T1 construct: recombinant DDAH1 over-expressed in HEK293T cells (lysate)

[2] = target: T1, dimethylarginine dimethylaminohydrolase 1 (DDAH1); assay: UPLC-MS of L-citrulline formation; […] inhibition at […], time-dependent, reversible on dilution
[3] = target: T1, dimethylarginine dimethylaminohydrolase 1 (DDAH1); assay: UPLC-MS of L-citrulline formation; […] inhibition at […], reversible on dilution

T1 sequence (O94760 2-285): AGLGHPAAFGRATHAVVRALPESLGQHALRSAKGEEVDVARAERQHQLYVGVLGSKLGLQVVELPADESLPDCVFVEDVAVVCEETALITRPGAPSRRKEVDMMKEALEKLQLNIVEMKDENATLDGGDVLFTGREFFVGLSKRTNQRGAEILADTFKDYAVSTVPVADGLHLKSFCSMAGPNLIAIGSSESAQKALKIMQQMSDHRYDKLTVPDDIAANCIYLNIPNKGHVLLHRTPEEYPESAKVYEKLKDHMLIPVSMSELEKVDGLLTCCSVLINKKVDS

- % [1]: 72%
Compound: COCCNC(N)=NCCC[C@H](N)C(=O)NS(C)(=O)=O [10a, ZST316]

- % [2]: 23%
Compound: Cc1c(OCC(F)(F)F)ccnc1C[S+]([O-])c1nc2ccccc2[nH]1 (stereo not drawn) [LPZ, lansoprazole]

- % [3]: 24%
Compound: COc1ccc2[nH]c([S+]([O-])Cc3ncc(C)c(OC)c3C)nc2c1 (stereo not drawn) [OPZ, omeprazole]
